Series [1] relates to SARS-CoV-2. Format: cell-based. Conditions: Calu-3 cells, treated 1 h post-infection, up to 10 µM, 72 h.
Series [2] is described as follows: Mouse infection model, body weight changes. The format is in vivo, BALB/C mice. Conditions: infected mice, 5 mg/kg intranasally, four-day observation.
The subject of series [3] is SARS-CoV-2. To be noted: Calu-3 cells, 5 µM, pre-treated 2 h, MOI 0.1, 72 h.
In another series the test system is Calu-3 cells. Conditions: uninfected Calu-3 cells, concentrations up to 10 µM, normalized to DMSO.

As to `O=P(O)(O)OC[C@H]1O[C@@H](n2cnc3c(S)ncnc32)[C@H](O)[C@@H]1O` [thioinosinic acid], the “viral progeny / inhibitory effect (plaque assay, Western blotting)” value (from here on “viral progeny / inhibitory effect”) with SARS-CoV-2 [1] was “notable antiviral efficacy”. Besides, in series [2], the “weight changes versus control group” value is “no significant difference in weight changes”.

With `Cn1cnc([N+](=O)[O-])c1Sc1ncnc2nc[nH]c12` [azathioprine], in the series with SARS-CoV-2 [1], the “viral progeny / inhibitory effect” value is listed as “significant reduction in viral progeny”. Moreover, in series [2], the “weight changes versus control group” value was “no significant difference in weight changes”. For the same compound, the “antiviral activity (intracellular virus, immunofluorescence staining)” value in the series with SARS-CoV-2 [3] is “antiviral activity comparable to established nucleoside analog inhibitors”. The cellular toxicity result with Calu-3 cells is reported as “low cellular toxicity”.

Consider `CC(C)C(=O)OC[C@H]1O[C@@H](n2ccc(NO)nc2=O)[C@H](O)[C@@H]1O` [molnupiravir], for which the “viral progeny / inhibitory effect” value in the series on SARS-CoV-2 [1] is given as “moderate inhibitory effects”.

The record behind these values is paper PMC10740425, “How Deep Learning in Antiviral Molecular Profiling Identified Anti-SARS-CoV-2 Inhibitors” (Biomedicines, 2023).
